From patent publication US8182842B1, “Physico-chemical-managed killing of penicillin-resistant static and growing gram-positive and gram-negative vegetative bacteria” (The United States of America as represented by the …, priority 2010, dated 2012)
“Also recorded” adds a separate entry of the source.

Experiments:
[1] = test system: methicillin-resistant Staphylococcus aureus (MRSA); test: kill curve time course of MRSA suspensions (CFU survival); format: cell-based
Protocol: FIGS. 1 through 17 illustrate kill curve time course experiments of stationary and logarithmic-phase MRSA bacterial suspensions exposed to PBS as well as denaturing SS at pH […] or pH 7.4 in the presence of cloxacillin concentrations spanning from 512 μg/ml to 4096 μg/ml. Experiments were conducted at 22° C. or 35° C. The completion time for the experiments ranged from 20 minutes to 24 hours.
For these experiments, the MRSA strain was grown overnight in Mueller-Hinton broth (MH)+2% NaCl at 35° C., subcultured into fresh media, and grown to mid-logarithmic phase. The cells were centrifuged and resuspended in pH 7.4 MH+2% NaCl to produce an OD600 nm known to indicate logarithmic-phase or stationary-phase of growth. An appropriate volume of cells was added to 1 ml of buffered SS in a 10 ml Falcon tube to yield a final concentration of ca. 1×10^8 colony forming units (CFU)/ml, except for the experiments of FIGS. 1-4 where the final concentration of ca. 1×10^6 CFU/ml applies. Survival was determined for bacteria held for varied exposure times of up to 24 hours in the SS or in PBS at pH 5.6 or pH 7.4, each altered with cloxacillin concentrations ranging in doublings from 512 μg/ml to 4096 μg/ml. Survival was measured from samples held at 22° C. and 35° C. After exposure, samples of 50 μl were then withdrawn and a serial dilution series established. Cells were then plated on MH+2% NaCl agar plates and incubated at 22° C. or 35° C. for CFU formation, after which colonies were counted, surviving fractions recorded, and survival curves constructed. Triplicate experiments were conducted for each exposure condition. The cells were treated under static conditions in all cases and treatments were always made on cells held in salt solutions, never on cells held in growth media. In addition to logarithmic-phase cells, stationary-phase cells removed from growth cycle were also treated.
Killing efficiency is evaluated as therapeutically sufficient according to the 10^−5 level of killing in 5 minutes specified by the British Standard BS EN 1276:1997 Chemical Disinfectants and Antiseptics, which is referred to as the gold standard for efficacy of bactericidal agents. Typically, agents meeting the British Standard are too toxic for human topical application. However, this is not a restriction for effective SS containing cloxacillin used in the illustrated embodiment.

Pseudomonas aeruginosa = test: kill curve time course of Pseudomonas aeruginosa suspensions (CFU survival); format: cell-based; conditions: for killing: 20 minutes
Protocol: FIGS. 18 through 41 illustrate kill curve time-course experiments of stationary-phase and logarithmic-phase Pseudomonas aeruginosa bacterial suspensions exposed to PBS, to SS, to PBS in the presence of cloxacillin concentrations spanning from 512 μg/ml to 4096 μg/ml, or to SS in the presence of cloxacillin concentrations spanning from 512 μg/ml to 4096 μg/ml. Experiments were conducted at 22° C. or 35° C. over the course of 10, 20, or 60 minutes.
Pseudomonas aeruginosa cells were prepared as described above for MRSA with a few exceptions. The Pseudomonas aeruginosa cells were first grown in trypticase soy broth and then frozen in aliquots, which were later rescued into MH broth+2% NaCl for use as in the MRSA experiments. An appropriate volume of cells was added to 1 ml of comparative salt solutions in a 10 ml Falcon tube to yield a final concentration of ca. 1×10^8 colony forming units (CFU)/ml. Survival was determined for bacteria held for varied exposure times of up to 60 minutes in PBS, in SS, in PBS altered with cloxacillin concentrations ranging in doublings from 512 μg/ml to 4096 μg/ml, or in SS containing cloxacillin concentrations ranging in doublings from 512 μg/ml to 4096 μg/ml. The salt solutions were compared at a pH of 5.6 or 7.4. Survival was measured from samples held at 22° C. or 35° C. After exposure, samples of 50 μl were then withdrawn and a serial dilution series established. Cells were then plated on MH+2% NaCl agar plates and incubated at 22° C. or 35° C. for CFU formation, after which colonies were counted, surviving fractions recorded, and survival curves constructed. Triplicate experiments were conducted for each exposure condition. The cells were treated under static conditions in all cases and treatments were always made on cells held in salt solutions, never on cells held in growth media. In addition to logarithmic-phase cells, stationary-phase cells removed from growth cycle were also treated.

Cc1onc(-c2ccccc2Cl)c1C(=O)N[C@@H]1C(=O)N2[C@@H]1SC(C)(C)[C@@H]2C(=O)O [cloxacillin]
killing effect ([1]; FIG. 1, pH 5.5 PBS, 1024 μg/ml cloxacillin, 22° C., logarithmic-phase MRSA, 20 minute): non-substantial killing effect; also recorded: not effective | killing effect ([1]; FIG. 2, pH 7.4 PBS, 512 μg/ml cloxacillin, 22° C., logarithmic-phase MRSA, 20 minute): non-substantial killing effect; also recorded: not effective | killing effect ([1]; FIG. 3, pH 5.5 SS, 1024 μg/ml cloxacillin, 22° C., logarithmic-phase MRSA, 20 minute): not effective; also recorded: non-substantial killing effect | killing effect ([1]; FIG. 4, pH 7.4 SS, 512 μg/ml cloxacillin, 22° C., logarithmic-phase MRSA, 60 minute): substantial killing; also recorded: killing effect | surviving fraction ([1]; FIG. 4, pH 7.4 SS, 512 μg/ml cloxacillin, 22° C., logarithmic-phase MRSA, all time points, no survivors on treated plates): < 2×10^−4 | killing effect ([1]; FIG. 5, pH 7.4 SS, 512 μg/ml cloxacillin, 22° C., stationary-phase MRSA, 60 minute): killing effect | killing effect ([1]; FIG. 6, pH 7.4 SS, 1024 μg/ml cloxacillin, 22° C., stationary-phase MRSA, 60 minute): killing effect | killing effect ([1]; FIG. 7, pH 7.4 SS, 2048 μg/ml cloxacillin, 22° C., stationary-phase MRSA, 60 minute): killing effect | killing effect ([1]; FIG. 8, pH 7.4 SS, 4096 μg/ml cloxacillin, 22° C., stationary-phase MRSA, 60 minute): killing effect | time in which the 10^−5 level of killing is achieved ([1]; FIG. 9, pH 7.4 SS, 4096 μg/ml cloxacillin, 22° C., stationary-phase MRSA): 3 hours | killing effect ([1]; FIG. 9, pH 7.4 SS, 4096 μg/ml cloxacillin, 22° C., stationary-phase MRSA, 24 hour): killing effect | killing effect ([1]; FIG. 10, pH 7.4 SS, 512 μg/ml cloxacillin, 35° C., logarithmic-phase MRSA, 20 minute): killing effect | killing effect ([1]; FIG. 11, pH 7.4 SS, 1024 μg/ml cloxacillin, 35° C., logarithmic-phase MRSA, 20 minute): killing effect | killing effect ([1]; FIG. 12, pH 7.4 SS, 2048 μg/ml cloxacillin, 35° C., logarithmic-phase MRSA, 20 minute): killing effect | killing effect ([1]; FIG. 13, pH 7.4 SS, 4096 μg/ml cloxacillin, 35° C., logarithmic-phase MRSA, 20 minute): killing effect | killing effect ([1]; FIG. 14, pH 7.4 SS, 512 μg/ml cloxacillin, 35° C., stationary-phase MRSA, 60 minute): killing effect | killing effect ([1]; FIG. 15, pH 7.4 SS, 1024 μg/ml cloxacillin, 35° C., stationary-phase MRSA, 60 minute): killing effect | killing effect ([1]; FIG. 16, pH 7.4 SS, 2048 μg/ml cloxacillin, 35° C., stationary-phase MRSA, 60 minute): killing effect | killing effect ([1]; FIG. 17, pH 7.4 SS, 4096 μg/ml cloxacillin, 35° C., stationary-phase MRSA, 60 minute): killing effect | efficiency of killing versus British Standard BS EN 1276:1997 (10^−5 level of killing in 5 minutes) ([1]; FIGS. 5-9, pH 7.4 SS, 512 to 4096 μg/ml cloxacillin, 22° C., stationary-phase MRSA): does not provide the 10^−5 level of killing in 5 minutes | killing compared with 22° C. ([1]; FIGS. 10-13, pH 7.4 SS, 512 to 4096 μg/ml cloxacillin, 35° C., logarithmic-phase MRSA): killing is enhanced | killing compared with 22° C. ([1]; FIGS. 14-17, pH 7.4 SS, 512 to 4096 μg/ml cloxacillin, 35° C., stationary-phase MRSA): enhanced killing | efficiency of killing versus British Standard BS EN 1276:1997 (10^−5 level of killing in 5 minutes) ([1]; pH 7.4 SS with cloxacillin, 35° C., logarithmic-phase MRSA): approaches or exceeds the 10^−5 level of killing in 5 minutes | efficiency of killing versus British Standard BS EN 1276:1997 (10^−5 level of killing in 5 minutes) ([1]; pH 7.4 SS with cloxacillin, 35° C., stationary-phase MRSA): approaches or exceeds the 10^−5 level of killing in 5 minutes | killing effect (Pseudomonas aeruginosa; FIG. 22, pH 7.4 PBS, 512 μg/ml cloxacillin, 22° C., logarithmic-phase, 20 minute): non-substantial killing effect | killing effect (Pseudomonas aeruginosa; FIG. 23, pH 7.4 PBS, 1024 μg/ml cloxacillin, 22° C., logarithmic-phase, 20 minute): non-substantial killing effect | killing effect (Pseudomonas aeruginosa; FIG. 24, pH 7.4 PBS, 2048 μg/ml cloxacillin, 22° C., logarithmic-phase, 20 minute): non-substantial killing effect | killing effect (Pseudomonas aeruginosa; FIG. 25, pH 7.4 PBS, 4096 μg/ml cloxacillin, 22° C., logarithmic-phase, 20 minute): non-substantial killing effect | killing effect (Pseudomonas aeruginosa; FIG. 26, pH 7.4 SS, 512 μg/ml cloxacillin, 22° C., logarithmic-phase, 20 minute): killing effect | killing effect (Pseudomonas aeruginosa; FIG. 27, pH 7.4 SS, 1024 μg/ml cloxacillin, 22° C., logarithmic-phase, 20 minute): killing effect | killing effect (Pseudomonas aeruginosa; FIG. 28, pH 7.4 SS, 2048 μg/ml cloxacillin, 22° C., logarithmic-phase, 10 minute): killing effect | killing effect (Pseudomonas aeruginosa; FIG. 29, pH 7.4 SS, 4096 μg/ml cloxacillin, 22° C., logarithmic-phase, 10 minute): killing effect | killing effect (Pseudomonas aeruginosa; FIG. 30, pH 7.4 PBS, 512 μg/ml cloxacillin, 35° C., logarithmic-phase, 20 minute): non-substantial killing effect | killing effect (Pseudomonas aeruginosa; FIG. 31, pH 7.4 PBS, 1024 μg/ml cloxacillin, 35° C., logarithmic-phase, 20 minute): non-substantial killing effect | killing effect (Pseudomonas aeruginosa; FIG. 32, pH 7.4 PBS, 2048 μg/ml cloxacillin, 35° C., logarithmic-phase, 20 minute): non-substantial killing effect | killing effect (Pseudomonas aeruginosa; FIG. 33, pH 7.4 PBS, 4096 μg/ml cloxacillin, 35° C., logarithmic-phase, 20 minute): non-substantial killing effect | killing effect (Pseudomonas aeruginosa; FIG. 34, pH 7.4 SS, 512 μg/ml cloxacillin, 35° C., logarithmic-phase, 20 minute): killing effect | killing effect (Pseudomonas aeruginosa; FIG. 35, pH 7.4 SS, 1024 μg/ml cloxacillin, 35° C., logarithmic-phase, 20 minute): killing effect | killing effect (Pseudomonas aeruginosa; FIG. 36, pH 7.4 SS, 2048 μg/ml cloxacillin, 35° C., logarithmic-phase, 20 minute): killing effect | killing effect (Pseudomonas aeruginosa; FIG. 37, pH 7.4 SS, 4096 μg/ml cloxacillin, 35° C., logarithmic-phase, 20 minute): killing effect | killing effect (Pseudomonas aeruginosa; FIG. 38, pH 7.4 SS, 512 μg/ml cloxacillin, 22° C., stationary-phase, 20 minute): killing effect | killing effect (Pseudomonas aeruginosa; FIG. 39, pH 7.4 SS, 1024 μg/ml cloxacillin, 22° C., stationary-phase, 20 minute): killing effect | killing effect (Pseudomonas aeruginosa; FIG. 40, pH 7.4 SS, 2048 μg/ml cloxacillin, 22° C., stationary-phase, 20 minute): killing effect | killing effect (Pseudomonas aeruginosa; FIG. 41, pH 7.4 SS, 4096 μg/ml cloxacillin, 22° C., stationary-phase, 20 minute): killing effect | killing (Pseudomonas aeruginosa; FIGS. 22-25, PBS pH 7.4, 512 to 4096 μg/ml cloxacillin, 22° C., logarithmic-phase): non-substantial killing | efficiency of killing (Pseudomonas aeruginosa; FIGS. 26-29, SS pH 7.4, all concentrations 512 to 4096 μg/ml cloxacillin, 22° C., logarithmic-phase, 10 or 20 minutes): substantially efficient in killing | killing (Pseudomonas aeruginosa; FIGS. 30-33, PBS pH 7.4, 512 to 4096 μg/ml cloxacillin, 35° C., logarithmic-phase): non-substantial killing | killing (Pseudomonas aeruginosa; FIGS. 34-37, SS pH 7.4, 512 to 4096 μg/ml cloxacillin, 35° C., logarithmic-phase): substantial killing | killing (Pseudomonas aeruginosa; FIGS. 38-41, SS pH 7.4, 512 to 4096 μg/ml cloxacillin, 22° C., stationary-phase): substantial killing
